From patent publication US8633206B2, “Pyrrolo[2,3-D]pyrimidine compounds” (Pfizer Inc., priority 2009, dated 2014) come the findings set out here.

Holding throughout (assay type): biochemical
For assay [1], the target named is JAK2 (Homo sapiens (Human), UniProt O60674). Nature of the assay: JAK enzymatic assay (peptide mobility shift), JAK2. The following applies: recombinant JAK2 2 nM, JAKtide peptide, 150 minutes.
Assay [2] concerns the target JAK3 (Homo sapiens (Human), UniProt P52333). Nature of the assay: JAK enzymatic assay (peptide mobility shift), JAK3. To be noted: recombinant JAK3 1 nM, JAKtide peptide, 90 minutes.
Assay [3] has as its target JAK1 (Homo sapiens (Human), UniProt P23458). In words: JAK enzymatic assay (peptide mobility shift), JAK1. To be noted: recombinant JAK1 20 nM, IRS-1 peptide, 240 minutes.

Sequence of JAK3 (P52333 781-1124): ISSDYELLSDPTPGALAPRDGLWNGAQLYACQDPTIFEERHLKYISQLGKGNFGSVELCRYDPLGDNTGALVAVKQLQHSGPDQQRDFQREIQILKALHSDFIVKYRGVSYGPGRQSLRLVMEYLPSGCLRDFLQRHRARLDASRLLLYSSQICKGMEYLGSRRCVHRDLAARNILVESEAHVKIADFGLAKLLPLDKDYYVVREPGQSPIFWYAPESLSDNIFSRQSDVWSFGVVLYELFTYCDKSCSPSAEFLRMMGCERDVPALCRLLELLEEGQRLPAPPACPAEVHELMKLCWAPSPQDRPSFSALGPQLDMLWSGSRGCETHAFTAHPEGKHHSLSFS
Sequence of JAK2 (O60674 808-1132): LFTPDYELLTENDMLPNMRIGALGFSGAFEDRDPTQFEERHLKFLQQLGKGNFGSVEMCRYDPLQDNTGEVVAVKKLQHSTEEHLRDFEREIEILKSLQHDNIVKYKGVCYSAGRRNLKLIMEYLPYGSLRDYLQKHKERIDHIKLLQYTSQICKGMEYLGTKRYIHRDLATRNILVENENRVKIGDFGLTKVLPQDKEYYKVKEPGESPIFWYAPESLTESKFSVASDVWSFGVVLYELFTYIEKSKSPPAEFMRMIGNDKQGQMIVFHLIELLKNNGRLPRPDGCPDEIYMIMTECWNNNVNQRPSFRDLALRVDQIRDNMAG
Sequence of JAK1 (P23458 whole entry): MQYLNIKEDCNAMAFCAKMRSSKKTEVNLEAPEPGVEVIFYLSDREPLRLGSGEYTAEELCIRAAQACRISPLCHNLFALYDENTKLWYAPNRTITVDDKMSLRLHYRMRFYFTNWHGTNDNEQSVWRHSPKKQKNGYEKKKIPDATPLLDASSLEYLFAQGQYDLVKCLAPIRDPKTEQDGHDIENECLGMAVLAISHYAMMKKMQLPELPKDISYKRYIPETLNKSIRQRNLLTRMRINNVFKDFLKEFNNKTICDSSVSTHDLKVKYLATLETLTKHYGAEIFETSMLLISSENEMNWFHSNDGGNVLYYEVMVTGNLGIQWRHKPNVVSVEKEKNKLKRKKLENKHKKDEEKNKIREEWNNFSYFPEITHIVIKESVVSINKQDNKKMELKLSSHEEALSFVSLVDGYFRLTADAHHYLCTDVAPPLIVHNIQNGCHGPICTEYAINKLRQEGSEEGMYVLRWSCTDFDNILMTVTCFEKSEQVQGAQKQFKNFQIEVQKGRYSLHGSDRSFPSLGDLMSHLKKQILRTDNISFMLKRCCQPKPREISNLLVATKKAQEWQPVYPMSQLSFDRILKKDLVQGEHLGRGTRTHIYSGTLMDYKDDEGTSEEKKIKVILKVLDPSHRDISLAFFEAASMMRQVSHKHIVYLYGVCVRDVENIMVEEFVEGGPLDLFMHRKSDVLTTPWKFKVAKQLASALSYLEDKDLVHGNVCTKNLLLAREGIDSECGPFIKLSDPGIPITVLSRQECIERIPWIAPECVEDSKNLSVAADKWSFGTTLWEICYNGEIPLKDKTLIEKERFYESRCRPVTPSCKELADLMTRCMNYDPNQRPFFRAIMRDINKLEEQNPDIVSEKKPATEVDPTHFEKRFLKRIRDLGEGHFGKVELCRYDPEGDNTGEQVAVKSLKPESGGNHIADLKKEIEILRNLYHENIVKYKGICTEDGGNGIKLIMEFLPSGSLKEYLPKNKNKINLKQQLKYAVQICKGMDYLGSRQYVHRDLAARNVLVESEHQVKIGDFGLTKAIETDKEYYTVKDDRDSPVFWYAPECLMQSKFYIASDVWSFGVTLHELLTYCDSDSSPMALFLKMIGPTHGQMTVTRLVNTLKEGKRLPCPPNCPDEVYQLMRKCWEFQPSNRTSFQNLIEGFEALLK

On to `CN(c1ncnc2[nH]ccc12)[C@H]1CC[C@H](CS(=O)(=O)N2CC[C@H](c3ncccn3)C2)CC1` [Example 87, N-methyl-N-(trans-4-{[(3-pyrimidin-2-ylpyrrolidin-1-yl)sulfonyl]methyl}cyclo-hexyl)-7H-pyrrolo[2,3-d]pyrimidin-4-amine], for which the concentration for half-maximal inhibition (IC50) (commonly the midpoint of a concentration-inhibition curve) in assay [1] was 5.72 nM; in assay [2], 55.7 nM; in assay [3], 3.27 nM.

`CN(c1ncnc2[nH]ccc12)[C@H]1CC[C@H](CS(=O)(=O)N2CC[C@H](Cc3ccccc3)C2)CC1` [Example 104, N-(trans-4-{[(3-benzyl-pyrrolidin-1-yl)sulfonyl]-methyl}cyclohexyl)-N-methyl-7H-pyrrolo[2,3-d]-pyrimidin-4-amine]: the concentration for half-maximal inhibition (IC50) amounted to 65.4 nM in assay [1], 721 nM in assay [2] and 18 nM in assay [3].

In the case of `CN(c1ncnc2[nH]ccc12)[C@H]1CC[C@H](CS(=O)(=O)N2C[C@@H](O)[C@@H](O)C2)CC1` [Example 71, (3R,4S)-1-[({trans-4-[methyl(7H-pyrrolo[2,3-d]-pyrimidin-4-yl)amino]-cyclohexyl}methyl)sulfonyl] pyrrolidine-3,4-diol], the concentration for half-maximal inhibition (IC50) in assay [1] is 8.54 nM; in assay [2] it was 80.8 nM; in assay [3] it was 2.52 nM.

Turning to `CN(c1ncnc2[nH]ccc12)[C@H]1CC[C@H](CS(=O)(=O)N2CC(c3ncccn3)C2)CC1` [Example 110, N-methyl-N-(trans-4-{[(3-pyrimidin-2-ylazetidin-1-yl)sulfonyl]methyl}cyclo-hexyl)-7H-pyrrolo[2,3-d]pyrimidin-4-amine], the figures for the IC50 in assay [1], in assay [2] and in assay [3] were 22.6 nM, 294 nM and 16.4 nM, respectively.

In the case of `CC(=O)NCC1CCCN(S(=O)(=O)C[C@H]2CC[C@H](N(C)c3ncnc4[nH]ccc34)CC2)C1` (stereo partly drawn) [Example 20, N-({1-[({trans-4-[methyl-(7H-pyrrolo[2,3-d]-pyrimidin-4-yl)amino]-cyclohexyl}methyl)sulfonyl]-piperidin-3-yl}methyl)-acetamide], the results for the 50% inhibitory concentration (IC50) in assay [1], in assay [2] and in assay [3] were 15.2 nM, 190 nM and 1.66 nM, respectively.

Regarding `Cc1nnc(C2CCCN(S(=O)(=O)C[C@H]3CC[C@H](N(C)c4ncnc5[nH]ccc45)CC3)C2)o1` (stereo partly drawn) [Example 18, N-methyl-N-[trans-4-({[3-(5-methyl-1,3,4-oxadiazol-2-yl)piperidin-1-yl]sulfonyl}methyl)-cyclohexyl]-7H-pyrrolo-[2,3-d]pyrimidin-4-amine], the half-inhibitory concentration (IC50) in assay [1] was found to be 19.5 nM; in assay [2], 210 nM; in assay [3], 9.75 nM.

Consider `CN(c1ncnc2[nH]ccc12)[C@H]1CC[C@H](CS(=O)(=O)N2CCCC(F)C2)CC1` (stereo partly drawn) [Example 10, N-(trans-4-{[(3-fluoro-piperidin-1-yl)sulfonyl]-methyl}cyclohexyl)-N-methyl-7H-pyrrolo[2,3-d]-pyrimidin-4-amine], for which the values for the IC50 in assay [1], in assay [2] and in assay [3] were 26.2 nM, 234 nM and 5.3 nM, respectively.

Take `CN(c1ncnc2[nH]ccc12)[C@H]1CC[C@H](CS(=O)(=O)N2CCC(O)(c3ccccc3)CC2)CC1` [Example 24, 1-[({trans-4-[methyl(7H-pyrrolo[2,3-d]pyrimidin-4-yl)amino]cyclohexyl}methyl)-sulfonyl]-4-phenyl-piperidin-4-ol]: the results for the concentration for half-maximal inhibition (IC50) in assay [1], in assay [2] and in assay [3] were 7.42 nM, 37.4 nM and 5.03 nM, respectively.

For the compound `CN(c1ncnc2[nH]ccc12)[C@H]1CC[C@H](CS(=O)(=O)N2CCC(C(C)(C)O)CC2)CC1` [Example 47, 2-{1-[({trans-4-[methyl(7H-pyrrolo[2,3-d]pyrimidin-4-yl)amino]cyclohexyl}methyl)-sulfonyl]piperidin-4-yl}propan-2-ol], the results for the half-maximal inhibitory concentration (IC50) in assay [1], in assay [2] and in assay [3] were 68.4 nM, 397 nM and 13.5 nM, respectively.

With `CCc1ccc(COC[C@H]2CCN(S(=O)(=O)C[C@H]3CC[C@H](N(C)c4ncnc5[nH]ccc45)CC3)C2)nc1` [Example 94, N-(trans-4-{[(3-{[(5-ethylpyridin-2-yl)methoxy]-methyl}pyrrolidin-1-yl)-sulfonyl]methyl}-cyclohexyl)-N-methyl-7H-pyrrolo[2,3-d]pyrimidin-4-amine], the IC50 in assay [1] came out at 63.6 nM; in assay [2], 678 nM; in assay [3], 17.5 nM.

Turning to `CN(c1ncnc2[nH]ccc12)[C@H]1CC[C@H](CS(=O)(=O)N2CC[C@@](O)(COc3cccc(F)c3)C2)CC1` [Example 84, 3-[(3-fluorophenoxy)-methyl]-1-[({trans-4-[methyl(7H-pyrrolo[2,3-d]-pyrimidin-4-yl)amino]-cyclohexyl}methyl)sulfonyl] pyrrolidin-3-ol], the IC50 in assay [1] turned out to be 26.2 nM; in assay [2], 132 nM; in assay [3], 3.12 nM.

With `CN(c1ncnc2[nH]ccc12)[C@H]1CC[C@H](CS(=O)(=O)N2C[C@](C)(CO)[C@](C)(CO)C2)CC1` [Example 79, {(3R,4S)-3,4-dimethyl-1-[({trans-4-[methyl(7H-pyrrolo[2,3-d]pyrimidin-4-yl)amino]cyclohexyl}methyl)-sulfonyl]pyrrolidine-3,4-diyl}dimethanol], the IC50 in assay [1] stood at 55.6 nM; in assay [2], 580 nM; in assay [3] it was 14.4 nM.

`CN(c1ncnc2[nH]ccc12)[C@H]1CC[C@H](CS(=O)(=O)N2CCC[C@@H](OC(=O)C(C)(C)C)C2)CC1` [Example 134, trans-(R)-1-((4-(methyl(7H-pyrrolo[2,3-d]pyrimidin-4-yl)amino)cyclohexyl)methylsulfonyl)piperidin-3-yl pivalate]: the results for the IC50 in assay [1], in assay [2] and in assay [3] were 0.129 nM, 3.89 nM and 0.0227 nM, respectively.

Consider `Cc1cccc(C[C@H]2CCCN2S(=O)(=O)C[C@H]2CC[C@H](N(C)c3ncnc4[nH]ccc34)CC2)n1` [Example 106, N-methyl-N-{trans-4-[({2-[(6-methylpyridin-2-yl)methyl]pyrrolidin-1-yl}sulfonyl)methyl]cyclo-hexyl}-7H-pyrrolo[2,3-d]pyrimidin-4-amine], for which the IC50 in assay [1] stood at 24.3 nM; in assay [2], 322 nM; in assay [3] it was 3.6 nM.

For the compound `CCOC1CCCN(S(=O)(=O)CC2CCC(N(C)c3ncnc4[nH]ccc34)CC2)C1` (stereo not drawn) [Example 3, N-(trans-4-{[(3-ethoxypiperidin-1-yl)sulfonyl]methyl}cyclo-hexyl)-N-methyl-7H-pyrrolo[2,3-d]pyrimidin-4-amine], the 50% inhibitory concentration (IC50) in assay [1] stood at 4.09 nM; in assay [2] it was 31.7 nM; in assay [3] it was 1.2 nM.

As for `CN(c1ncnc2[nH]ccc12)[C@H]1CC[C@H](CS(=O)(=O)N2CCC(CC(N)=O)CC2)CC1` [Example 55, 2-{1-[({trans-4-[methyl(7H-pyrrolo[2,3-d]pyrimidin-4-yl)amino]cyclohexyl}-methyl)sulfonyl]piperidin-4-yl}-acetamide], the IC50 is 84.8 nM in assay [1], 681 nM in assay [2] and 20.1 nM in assay [3].

For `CN(c1ncnc2[nH]ccc12)[C@H]1CC[C@H](CS(=O)(=O)N2CCCC(COc3ccc(F)cc3)C2)CC1` (stereo partly drawn) [Example 15, N-{trans-4-[({3-[(4-fluoro-phenoxy)methyl]piperidin-1-yl}sulfonyl)methyl]-cyclohexyl}-N-methyl-7H-pyrrolo[2,3-d]pyrimidin-4-amine], the half-maximal inhibitory concentration (IC50) in assay [1] is 32 nM; in assay [2] it was 10000 nM; in assay [3], 5.91 nM.

For `COC(=O)NC1CN(S(=O)(=O)C[C@H]2CC[C@H](N(C)c3ncnc4[nH]ccc34)CC2)C1` [Example 117, methyl {1-[({trans-4-[methyl(7H-pyrrolo[2,3-d]pyrimidin-4-yl)amino]-cyclohexyl}methyl)sulfonyl]azetidin-3-yl}carbamate], the IC50 in assay [1] stood at 32.4 nM; in assay [2], 382 nM; in assay [3] it was 11 nM.

Consider `CN(c1ncnc2[nH]ccc12)[C@H]1CC[C@H](CS(=O)(=O)N2CCCC(O)(COc3cccc(F)c3)C2)CC1` (stereo partly drawn) [Example 19, 3-[(3-fluorophenoxy)-methyl]-1-[({trans-4-[methyl(7H-pyrrolo[2,3-d]pyrimidin-4-yl)amino]-cyclohexyl}methyl)sulfonyl]-piperidin-3-ol], for which the results for the IC50 in assay [1], in assay [2] and in assay [3] were 46.8 nM, 492 nM and 14.8 nM, respectively.

Consider `CN(c1ncnc2[nH]ccc12)[C@H]1CC[C@H](CS(=O)(=O)N2CC[C@@](O)(c3ccccc3)C2)CC1` [Example 91, 1-[({trans-4-[methyl(7H-pyrrolo[2,3-d]pyrimidin-4-yl)amino]cyclohexyl}-methyl)sulfonyl]-3-phenylpyrrolidin-3-ol], for which the IC50 in assay [1] is 10.8 nM; in assay [2], 76.6 nM; in assay [3], 1.92 nM.

Turning to `CN(C)S(=O)(=O)C[C@H]1CCCN(S(=O)(=O)C[C@H]2CC[C@H](N(C)c3ncnc4[nH]ccc34)CC2)C1` [Example 57, N,N-dimethyl-1-{1-[({trans-4-[methyl(7H-pyrrolo[2,3-d]pyrimidin-4-yl)amino]-cyclohexyl}methyl)sulfonyl]piperidin-3-yl}-methanesulfonamide], the IC50 turned out to be 50.8 nM in assay [1], 453 nM in assay [2] and 7.7 nM in assay [3].

For `CN(c1ncnc2[nH]ccc12)[C@H]1CC[C@H](CS(=O)(=O)N2CCN(Cc3ccccn3)CC2)CC1` [Example 123, N-methyl-N-[trans-4-({[4-(pyridin-2-ylmethyl)-piperazin-1-yl]sulfonyl}-methyl)cyclohexyl]-7H-pyrrolo[2,3-d]pyrimidin-4-amine], the half-maximal inhibitory concentration (IC50) came out at 49.8 nM in assay [1], 323 nM in assay [2] and 13.7 nM in assay [3].

For the compound `CN(c1ncnc2[nH]ccc12)[C@H]1CC[C@H](CS(=O)(=O)N2C[C@H](CO)[C@H](S(C)(=O)=O)C2)CC1` [Example 33, [(3R,4S)-1-[({trans-4-[methyl(7H-pyrrolo[2,3-d]pyrimidin-4-yl)amino]-cyclohexyl}methyl)sulfonyl]-4-(methylsulfonyl)-pyrrolidin-3-yl]methanol], the concentration for half-maximal inhibition (IC50) in assay [1] was determined as 32.2 nM; in assay [2] it was 275 nM; in assay [3], 10.4 nM.
